The target of series [1] is EGFR (Homo sapiens, UniProt P00533). The experiment in a line: Caliper Mobility Shift Assay, inhibition of EGFR kinase activity. The format is biochemical.
Series [2] concerns the target HER2 (Homo sapiens, UniProt P04626). In words: Caliper Mobility Shift Assay, inhibition of HER2 kinase activity. The format is biochemical.
Series [3] relates to A431. In words: Inhibition of tumor cells, MTS method. The format is cell-based. The following applies: Homo sapiens, A-431, 72 hours. The method, then: (§1) (1) Compounds: in vitro studies the test compounds was dissolved in 100% DMSO and diluted until the final concentration of DMSO was 0.1%. The 0.1% (v/v) DMSO was added into culture medium as solvent control. 9 concentration gradients were tested and each gradient was repeated twice. (2) Tumor cell lines: the tumor cell lines were cultivated in RPMI10 culture medium containing 10% fetal calf serum in incubator at 37° C. in a 5% CO2 air incubator. The tested tumor cell lines were: BT474, MDA-MB-231, SK-Br-3, A431, H292, H1975, HCC827, A549, H1650 and H1734. (3) MTS method: cells were seeded into 96-well plate to give a density of about 3000 cells per well, and incubated overnight in a humidified incubator at 37° C. In the next day, the test compounds were added to the wells and further incubated for 72 hours. The cell activity was detected using MTS. IC50 was calculated (the concentration of a compound that is required for 50% inhibition of the cell growth versus the DMSO control group, using nonlinear regression analysis of software GraphPad Prism). […] In a 96-well plate, each test compound was tested at 9 dosage concentrations and each dosage was made in triplicate. Samples were added in 100 μL/well. Cell control and negative control wells contained diluents instead of compounds. Except the negative control well, 100 μL cell suspension of complete medium was added into each test well, wherein corresponding cell numbers were included to assure that the cells in cell control well just cover the bottom of the well as the required incubation time was reached. The plate was incubated in a CO2 incubator at 37° C. for 48 hours. The liquid in test wells was removed by pipetting. 100 μL CCK-8 (Cell counting Kit-8, purchased from DOJINDO Molecular Technologies) detection liquid (containing 10% CCK-8, 5% FBS corresponding medium) was added into each test well, then the plate was incubated in a CO2 incubator under at 37° C. for 3 hours. OD value was detected by ELIASA at A450 nm. Cell viability percentage (%)=(O.D. test compound-O.D. blank)/(O.D. control-O.D. blank)×100. Mean value was calculated for each 3 repeated wells, and IC50 was calculated using nonlinear regression (fitted curve) data analysis method.

For series [4], the system named is BT474. The experiment in a line: Inhibition of tumor cells, MTS method. The format is cell-based. The following applies: Homo sapiens, BT-474, 72 hours. How it is done:
as §1

In series [5] the test system is H1975. The experiment in a line: Inhibition of tumor cells, MTS method. The class given is cell-based. The following applies: Homo sapiens, NCI-H1975, 72 hours. The method, then: as §1
The subject of series [6] is H292. The experiment in a line: Inhibition of tumor cells, MTS method. The format is cell-based. Conditions: Homo sapiens, NCI-H292, 72 hours. The method, then:
as §1

The test system of series [7] is HCC827. The experiment in a line: Inhibition of tumor cells, MTS method. The class given is cell-based. The following applies: Homo sapiens, 72 hours. How it is done: as §1
Series [8] relates to MDA-MB-231. In words: Inhibition of tumor cells, MTS method. The class given is cell-based. Conditions: Homo sapiens, 72 hours. How it is done: as §1
In series [9] the test system is SK-Br-3. The experiment in a line: Inhibition of tumor cells, MTS method. The class given is cell-based. The following applies: Homo sapiens, 72 hours. How it is done:
as §1

Series [10] has as its target EGFR kinases (Homo sapiens, UniProt P00533). In words: Reversible inhibition test of enzyme activity of EGFR kinases. The class given is biochemical.
The test system of series [11] is A549. In words: Inhibition of tumor cells, MTS method. The format is cell-based. Conditions: Homo sapiens, 72 hours. How it is done:
as §1

Series [12] concerns H1650. The experiment in a line: Inhibition of tumor cells, MTS method. Conditions: Homo sapiens, NCI-H1650, 72 hours. The format is cell-based. How it is done:
as §1

Series [13] deals with H1734. In words: Inhibition of tumor cells, MTS method. The format is cell-based. The following applies: Homo sapiens, NCI-H1734, 72 hours. How it is done: as §1
Series [14] is described as follows: Pharmacokinetic experiments in CD-1 mice. The class given is in vivo. Conditions: male, mouse, plasma; for half-life: read-out: Terminal t1/2 (converted); for Vd: read-out: Vss. The method, then:
Experiment animals: CD-1 mice, male, 6-7 weeks of age; body weight: 20-25 g; Preparation of samples: the test compounds respectively were formulated to 0.2 mg/mL (for intravenous administration) and 1.0 mg/mL (for oral administration) for use. Administration routes: oral administration/intravenous administration. Amount and frequency of administration: 5 mL/kg for single administration.
Sample collection: blood was collected at the time points of 5 min, 15 min, 30 min, 1 h, 2 h, 4 h, 8 h and 24 h, about […] whole blood was collected from 3 animals at each time point. All of the animals were euthanized after the experiments.
Sample analysis: the collected samples were detected by LC-MS/MS, and the instrument model is SHIMADZU20A-API4000.
(§2) Pharmacokinetic data analysis: the obtained plasma concentration data were fitted and calculated using WinNolin according to non-compartment model.

A short description of series [15]: Long-term toxicity experiment (28 days) in rats. The class given is in vivo. The method, then:
(§3) Experiment Animals: rats, male, 6-8 weeks of age, body weight: 180-250 g; dogs, male, about 24 months, body weight: 7-10 kg.
(§4) Preparation of sample: in rat's experiments the mixed formulation powder of the compound Ie was formulated into 0.1, 0.3 and 1 mg/mL homogeneous suspension for use; administration route: oral administration; […]. In dog's experiments the tablets of compound Ie were fed to dogs. […].
(§5) Sample collection: blood was collected at the time points of 1, 10, 20 and 28 days respectively, about 120-200 μL whole blood was collected from 3 animals at each time point. Blood was collected at 1 h, 4 h, 8 h and 24 h after administration.
(§6) Sample analysis: the collected samples were detected by LC-MS/MS, and the instrument model was SHIMADZU20 A-API4000.
as §2

Series [16] can be described thus: Long-term toxicity experiment (28 days) in dogs. The class given is in vivo. Conditions: dogs, 5 mg/kg, 28 days; reaction of Afatinib group greater than compound Ie group. How it is done:
as §3, §4, §5, §6, §2

Data on five molecules can be found in patent publication US20150065709A1, “Aminoquinazoline Derivative And Use Thereof In Preparing Anti-Malignant Tumor Medicament” (METABOMICS, INC, priority 2012, published 2015).

Where two headings read alike, the source gives them in different places. Some results are limits rather than exact numbers.

Sequence of HER2 (P04626 23-1255): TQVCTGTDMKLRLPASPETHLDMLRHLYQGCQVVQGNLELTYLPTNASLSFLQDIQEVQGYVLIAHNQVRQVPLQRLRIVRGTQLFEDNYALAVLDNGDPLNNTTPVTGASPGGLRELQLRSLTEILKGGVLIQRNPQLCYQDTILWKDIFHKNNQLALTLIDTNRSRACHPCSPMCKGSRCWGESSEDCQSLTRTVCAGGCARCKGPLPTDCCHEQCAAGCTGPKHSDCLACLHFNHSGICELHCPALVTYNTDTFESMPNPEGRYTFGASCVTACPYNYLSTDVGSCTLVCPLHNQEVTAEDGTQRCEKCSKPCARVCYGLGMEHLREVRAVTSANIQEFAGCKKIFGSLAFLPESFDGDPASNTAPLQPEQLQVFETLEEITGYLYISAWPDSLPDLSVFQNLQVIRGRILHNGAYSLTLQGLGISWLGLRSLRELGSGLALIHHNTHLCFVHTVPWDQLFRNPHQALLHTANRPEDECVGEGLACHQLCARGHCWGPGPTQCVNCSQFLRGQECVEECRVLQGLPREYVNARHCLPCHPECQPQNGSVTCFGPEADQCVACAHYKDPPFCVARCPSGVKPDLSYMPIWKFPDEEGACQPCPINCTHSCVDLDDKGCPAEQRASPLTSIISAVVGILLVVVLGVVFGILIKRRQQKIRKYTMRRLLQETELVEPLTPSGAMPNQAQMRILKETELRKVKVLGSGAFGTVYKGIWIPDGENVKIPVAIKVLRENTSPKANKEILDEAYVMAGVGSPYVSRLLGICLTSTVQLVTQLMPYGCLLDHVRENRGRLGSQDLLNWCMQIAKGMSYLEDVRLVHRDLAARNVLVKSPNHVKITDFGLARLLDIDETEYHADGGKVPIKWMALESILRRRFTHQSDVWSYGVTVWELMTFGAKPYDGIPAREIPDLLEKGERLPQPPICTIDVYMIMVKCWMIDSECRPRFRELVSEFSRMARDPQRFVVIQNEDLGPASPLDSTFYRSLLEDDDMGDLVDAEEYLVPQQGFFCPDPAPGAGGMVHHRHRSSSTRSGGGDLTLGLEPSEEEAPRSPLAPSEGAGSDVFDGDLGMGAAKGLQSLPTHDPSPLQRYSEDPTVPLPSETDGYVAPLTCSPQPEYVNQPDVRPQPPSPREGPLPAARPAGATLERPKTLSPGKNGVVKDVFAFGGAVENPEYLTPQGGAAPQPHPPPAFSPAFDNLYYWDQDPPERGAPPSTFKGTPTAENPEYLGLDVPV
Sequence of EGFR (P00533 25-1210): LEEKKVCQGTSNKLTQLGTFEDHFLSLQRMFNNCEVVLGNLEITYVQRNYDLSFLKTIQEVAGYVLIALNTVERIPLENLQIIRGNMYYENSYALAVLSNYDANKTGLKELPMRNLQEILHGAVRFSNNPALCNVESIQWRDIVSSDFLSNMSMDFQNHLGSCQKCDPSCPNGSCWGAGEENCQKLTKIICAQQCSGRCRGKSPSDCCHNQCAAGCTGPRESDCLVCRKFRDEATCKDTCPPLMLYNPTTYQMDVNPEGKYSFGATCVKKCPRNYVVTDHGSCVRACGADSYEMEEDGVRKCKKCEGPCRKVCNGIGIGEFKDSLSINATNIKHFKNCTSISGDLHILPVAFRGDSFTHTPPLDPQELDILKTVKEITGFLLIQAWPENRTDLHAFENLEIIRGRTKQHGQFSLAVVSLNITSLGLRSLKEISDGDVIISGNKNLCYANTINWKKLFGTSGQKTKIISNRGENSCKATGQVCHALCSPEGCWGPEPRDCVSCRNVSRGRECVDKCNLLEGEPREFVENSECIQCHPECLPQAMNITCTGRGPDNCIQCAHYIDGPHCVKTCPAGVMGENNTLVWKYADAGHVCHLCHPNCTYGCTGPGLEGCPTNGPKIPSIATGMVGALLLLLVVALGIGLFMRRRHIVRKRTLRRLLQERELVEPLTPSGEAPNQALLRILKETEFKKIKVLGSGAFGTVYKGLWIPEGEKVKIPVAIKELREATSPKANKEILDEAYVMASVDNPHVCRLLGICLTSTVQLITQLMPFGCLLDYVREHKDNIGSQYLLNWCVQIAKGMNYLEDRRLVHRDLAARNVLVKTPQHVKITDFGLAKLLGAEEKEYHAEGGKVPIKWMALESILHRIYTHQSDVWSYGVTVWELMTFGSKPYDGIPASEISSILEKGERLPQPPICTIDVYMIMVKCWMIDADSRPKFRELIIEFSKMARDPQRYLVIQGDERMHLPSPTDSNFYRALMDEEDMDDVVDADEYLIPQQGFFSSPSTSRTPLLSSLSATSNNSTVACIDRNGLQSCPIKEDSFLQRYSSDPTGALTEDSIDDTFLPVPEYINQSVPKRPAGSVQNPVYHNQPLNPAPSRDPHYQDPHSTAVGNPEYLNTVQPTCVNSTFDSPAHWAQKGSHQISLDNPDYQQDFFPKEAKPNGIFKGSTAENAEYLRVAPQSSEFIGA
Sequence of EGFR kinases (P00533 25-1210): as above

As for `O=C(/C=C/c1ccccn1)Nc1cc2c(Nc3ccc(F)c(Cl)c3)ncnc2cc1OC1CCOC1` (stereo not drawn) [Compound Ib], the IC50 in series [1] stood at 3.9 nM; in [2], 90 nM; in series [3], 0.899 µM; in series [4], 3.18 µM; in series [5] it was 30.8 µM; in [6], 0.502 µM. Moreover, the IC50 in [7] is 0.157 µM; in series [8], 4.01 µM; in [9] it was 3.1 µM.

In the case of `CN(C/C=C/C(=O)Nc1cc2c(Nc3ccc(F)c(Cl)c3)ncnc2cc1OC1CCOC1)Cc1ccccc1` (stereo not drawn) [Compound Ia], the IC50 was found to be 2 nM in series [1]; 13 nM in [2]; 4.91 µM in series [3]; 5.93 µM in series [11]; 0.264 µM in [4]; 6.57 µM in series [12]. In addition, the IC50 worked out at 1.34 µM in series [13]; 0.882 µM in series [5]; 0.873 µM in [6]; 0.015 µM in series [7]; 0.42 µM in series [9]. Besides, the “reversibility of inhibition of EGFR kinases” value in series [10] is “irreversibility”. Also, the AUC(0-inf) in series [14] (1 mg/kg Intravenous Injection) was 110 ng·h/mL; in series [14] (5 mg/kg Oral Administration) it was 140 ng·h/mL. Besides, the AUC(0-t) was 104 ng·h/mL in series [14] (1 mg/kg Intravenous Injection) and 91.4 ng·h/mL in series [14] (5 mg/kg Oral Administration). In [14] (1 mg/kg Intravenous Injection), this molecule displayed an MRT inf of 0.616 h. This molecule also showed a clearance in series [14] (1 mg/kg Intravenous Injection) of 153 mL/min/kg. Besides, the half-life in series [14] (1 mg/kg Intravenous Injection) is 0.729 h; in series [14] (5 mg/kg Oral Administration), 1.76 h. Also, the Vd in [14] (1 mg/kg Intravenous Injection) turned out to be 5.47 L/kg. Also, the highest level in series [14] (5 mg/kg Oral Administration) (Cmax) was 31.4 ng/mL. Also, the time to peak (Tmax) in [14] (5 mg/kg Oral Administration) came out at 1.17 h.

On to `COc1cc2ncnc(Nc3ccc(F)c(Cl)c3)c2cc1NC(=O)/C=C/CN(C)Cc1ccccc1` [Compound Ic], for which the IC50 is 1.3 nM in [1]; 15 nM in series [2]; 13 µM in series [3]; above 10 µM in series [11]; 0.278 µM in series [4]; above 10 µM in [12]. For the same molecule, the IC50 in [13] is 5.26 µM; in [5], 0.715 µM; in [6], 0.727 µM; in series [7], 0.012 µM; in series [8], 13.9 µM; in series [9], 0.418 µM. Besides, the AUC(0-inf) in [14] (1 mg/kg Intravenous Injection) worked out at 206 ng·h/mL. Besides, the area under the curve AUC(0-t) is 163 ng·h/mL in series [14] (1 mg/kg Intravenous Injection) and 283 ng·h/mL in series [14] (5 mg/kg Oral Administration). In [14] (1 mg/kg Intravenous Injection), this molecule registered an MRT inf of 3.01 h. In series [14] (1 mg/kg Intravenous Injection), this molecule gave a clearance of 87.2 mL/min/kg. The half-life in series [14] (1 mg/kg Intravenous Injection) is 2.63 h. In addition, in series [14] (1 mg/kg Intravenous Injection), the Vd is 14.7 L/kg. For the same molecule, the Cmax in series [14] (5 mg/kg Oral Administration) was 66.7 ng/mL. Further, the Tmax in series [14] (5 mg/kg Oral Administration) stood at 2 h.

For the molecule `COc1cc2ncnc(Nc3ccc(F)c(Cl)c3)c2cc1NC(=O)/C=C/c1ccccn1` [Compound Id], the IC50 is 5.1 nM in series [1]; above 10000 nM in series [2]; 2.14 µM in [4]; 44.1 µM in series [6]; 0.04 µM in series [7]; 0.155 µM in series [9].

Take `CN(C)C/C=C/C(=O)Nc1cc2c(Nc3ccc(F)c(Cl)c3)ncnc2cc1O[C@H]1CCOC1` [Afatinib, reference compound]: the toxicity reaction result was “very significant toxicity reaction” in series [15] (rat, in vivo, 10 mg/kg); “significant toxicity reaction” in [15] (rats, 5 mg/kg, 28 days); “toxicity reactions” in series [16]. Further, the “weight during recovery phase after drug withdrawal” value in series [15] (rat, in vivo, 10 mg/kg) was “reduced weight during the recovery phase”.
